Tests used:
[1] = Determination of cationic lipid levels in rat liver (LC/MS-MS); format: in vivo; details: rats dosed with RDV containing the compound; compared with RDV containing DLinKC2DMA (Compound 20) or MC3 (Compound 21); FIG. 3
Experimental: Liver tissue was weighed into 20-ml vials and homogenized in 9 v/w of water using a GenoGrinder 2000 (OPS Diagnostics, 1600 strokes/min, 5 min). A 50 μL aliquot, of each tissue homogenate was mixed with 300 μL of extraction/protein precipitating solvent (50/50 acetonitrile/methanol containing 500 nM internal standard) and the plate was centrifuged to sediment precipitated protein. A volume of 200 μL of each supernatant was then transferred to separate wells of a 96-well plate and 10 μl samples were directly analyzed by LC/MS-MS.
Standards were prepared by spiking known amounts of a methanol stock solution of compound into untreated rat liver homogenate (9 vol water/weight liver). Aliquots (50 μL) each standard/liver homogenate was mixed with 300 μL of extraction/protein precipitating solvent (50/50 acetonitrile/methanol containing 500 nM internal standard) and the plate was centrifuged to sediment precipitated protein. A volume of 200 μL of each supernatant was transferred to separate wells of a 96-well plate and 10 μl of each standard was directly analyzed by LC/MS-MS.
Absolute quantification versus standards prepared and extracted from liver homogenate was performed using an Aria LX-2 HPLC system (Thermo Scientific) coupled to an API 4000 triple quadrupole mass spectrometer (Applied Biosystems). […]

[2] = test system: mRNA transcript for the firefly (Photinus pyralis) luciferase gene; assay: Mouse in vivo evaluation of efficacy (luciferase siRNA LNP, LSL-Luc transgenic mice, IVIS imaging); details: RDV containing the compound + Luc siRNA, tail vein, 0.1 to 0.5 mg/kg siRNA, 48 hours post dose; compared with RDV containing octyl-CLinDMA (OCD); FIG. 1
Experimental: LNPs utilizing Compounds 1-12, in the nominal compositions described immediately above, were evaluated for in vivo efficacy. The siRNA targets the mRNA transcript for the firefly (Photinus pyralis) luciferase gene (Accession #M15077). […] The in vivo luciferase model employs a transgenic mouse in which the firefly luciferase coding sequence is present in all cells. ROSA26-LoxP-Stop-LoxP-Luc (LSL-Luc) transgenic mice licensed from the Dana Farber Cancer Institute are Induced to express the Luciferase gene by first removing the LSL sequence with a recombinant Ad-Cre virus (Vector Biolabs). Due to the organotropic nature of the virus, expression is limited to the liver when delivered via tail vein injection. Luciferase expression levels in liver are quantitated by measuring light output, using an IVIS imager (Xenogen) following administration of the luciferin substrate (Caliper Life Sciences). Pre-dose luminescence levels are measured prior to administration of the RDVs. Luciferin in PBS (15 mg/mL) is intraperitoneally (IP) injected in a volume of 150 μL. After a four minute incubation period mice are anesthetized with isoflurane and placed in the IVIS imager. The RDVs (containing siRNA) in PBS vehicle were tail vein injected n a volume of 0.2 mL. […] In vivo efficacy results are expressed as % inhibition of luminescence relative to pre-dose luminescence levels. […]

[3] = Rat in vivo toxicity: survival after LNP dosing; details: for rats that failed to survive 48 hours: 3 mg/kg

SMILES	cationic lipid liver levels [1]	in vivo efficacy (% inhibition of luminescence relative to pre-dose luminescence levels) [2]	rats that survived at 48 hours post dose ([3]; female, Sprague-Dawley (Crl:CD(SD)), rat, in vivo, 48 h)	rats that failed to survive 48 hours [3]
CCCCC/C=C\C/C=C\CCCCCCCCOC[C@H](CCCCCCCCC)N(C)C [Compound 1, (2S)—N,N-dimethyl-1-[(9Z,12Z)-octadeca-9,12-dien-1-yloxy]undecan-2-amine]	lower	Greater efficacy	1 out of 4	
CCCCC/C=C\C/C=C\CCCCCCCCC1(CCCCCCCC/C=C\C/C=C\CCCCC)OCC(CCN(C)C)O1 (centres unmarked) [Compound 20, DLinKC2DMA]				3 out of 4
CCCCC/C=C\C/C=C\CCCCCCCCC(CCCCCCCC/C=C\C/C=C\CCCCC)OC(=O)CCCN(C)C [Compound 21, MC3]				2 out of 4

Source: patent US9725720B2, “Low molecular weight cationic lipids for oligonucleotide delivery” (SIRNA THERAPEUTICS, INC., priority 2010, dated 2017)
